One molecule from patent US20060204481A1, “Methods of promoting cell viability” (priority 2003, published 2006) can be followed below.

This experiment deals with TUNEL-positive cells in the grafted areas. Kind of experiment: TUNEL assay of apoptosis in graft areas 4 days post-transplantation. Format: in vivo, rat. The following applies: normal rats, p<0.01. Here is the method: For the TUDCA-treated rats, a 50 μM concentration of TUDCA was added to the media when nigral tissue was trypsinized and dissociated. Two microliters of cell suspension containing TUDCA were then stereotaxically injected into the striatum of SD rats. For the control animals, the same amount of vehicle solution was added to the media. In the first series of transplantation experiment, normal rats that received neural transplants were sacrificed 4 days post-grafting and brain sections were prepared for the terminal deoxynucleotidyl transferase (TdT)-mediated dUTP-biotin nick end labeling (TUNEL) assay to determine apoptosis in the transplantation areas. […] Graft survival was assessed by counting the number of TH-positive neurons in the grafts.
A cell suspension technique was used to perform the neural transplants as previously described (A. Björklund et al., Acta. Physiol. Scand. Suppl. 522:9-18; 1983; P. Brundin et al., In: P. M. Conn, ed., Methods in Neurosciences, Lesions and Transplantation, Academic Press, San Diego, Vol 7, 1991:305-326). […] Before and after transplantation, the viabilities of the cell suspensions were assessed by the trypan blue dye exclusion method. […]

Take `C[C@H](CCC(=O)NCCS(=O)(=O)O)[C@H]1CC[C@H]2[C@@H]3[C@@H](O)C[C@@H]4C[C@H](O)CC[C@]4(C)[C@H]3CC[C@]12C` [TUDCA, tauroursodeoxycholic acid]: the “number of apoptotic (TUNEL-positive) cells in the grafted areas compared to control group” value was “significantly smaller”.
